Measured values taken from patent US7498343B2, “Mycobacterial inhibitors” (priority 2002, dated 2009).
Converted amounts (≈) assume the structure as drawn. Where two headings read alike, the source gives them in different places.

How the values were obtained:
[1] = test system: Mycobacterium tuberculosis (strain H37RV); assay: In-vitro method for testing compounds against M. tuberculosis (resazurin growth inhibition, MIC); assay type: cell-based; conditions: MIC data representing IC90's, 7 days incubation, resazurin fluorescence
M. Smegmatis ATCC607 = assay: In-vitro method for testing compounds for anti-bacterial activity against strain M. smegmatis ATCC607 (Alamar Blue growth inhibition); assay type: cell-based; conditions: M. smegmatis ATCC607, pIC50 = -logIC50, IC50 in M, 50% inhibitory concentration for bacterial growth, 48 hours incubation
Procedure: C.2. In-vitro Method for Testing Compounds for Anti-bacterial Activity Against Strain M. Smegmatis ATCC607. […] Subsequently, stock solutions (7.8×final test concentration) of compounds were added in 45 μl volumes to a series of duplicate wells in column 2 so as to allow evaluation of their effects on bacterial growth. Serial five-fold dilutions (45 μl in 180 μl) were made directly in the microtiter plates from column 2 to 11 using a customised robot system (Zymark Corp., Hopkinton, Mass.). Pipette tips were changed after every 3 dilutions to minimize pipetting errors with high hydrophobic compounds. Untreated control samples with (column 1) and without (column 12) inoculum were included in each microtiter plate. Approximately 250 CFU per well of bacteria inoculum, in a volume of 100 μl in 2.8×Mueller-Hinton broth medium, was added to the rows […]. The same volume of broth medium without inoculum was added to column 12 in row A to H. The cultures were incubated at 37° C. for 48 hours in a humidified 5% CO2 atmosphere (incubator with open air valve and continuous ventilation). At the end of incubation, two days after inoculation, the bacterial growth was quantitated fluorometrically. Therefore Alamar Blue (10×) was added to all wells in a volume of 20 μl and plates were incubated for another 2 hours at […] The fluorescence was read in a computer-controlled fluorometer (Cytofluor, Biosearch) at an excitation wavelength of 530 nm and an emission wavelength of 590 nm (gain 30). The % growth inhibition achieved by the compounds was calculated according to standard methods.

| SMILES | MIC [1] [microgram/ml] | pIC50 (M. Smegmatis ATCC607) | MIC ([1]; Mycobacterium tuberculosis, H37RV, 168 h, read-out: MIC) [mg/L] | IC50 (M. Smegmatis ATCC607; Mycolicibacterium smegmatis, ATCC607, 48 h, read-out: pIC50 (converted)) [µM] |
| --- | --- | --- | --- | --- |
| COCCOc1nc2ccc(Br)cc2cc1C(c1ccccc1)C(O)(CCN(C)C)c1cccc(F)c1 (single isomer, unassigned) [Compound 165] | 2.26 | 6.6 |  |  |
| COc1nc2ccc(-c3ccccc3)cc2cc1C(c1ccccc1)C(O)(CCN(C)C)c1ccccc1 (single isomer, unassigned) [Compound 26] | 1.00 | 7.2 |  |  |
| COc1nc2ccc(F)cc2cc1C(c1ccccc1)C(O)(CCN(C)C)c1cc(F)cc(F)c1 (racemic) [Compound 207] | 48.05 | 5.2 |  |  |
| COc1nc2cc(C)c(Br)cc2cc1C(c1ccccc1)C(O)(CCN(C)C)c1cccc2ccccc12 (single isomer, unassigned) [Compound 225] | 1.80 | 6.6 |  |  |
| COc1nc2ccc(Br)cc2cc1C(c1ccccc1)C(O)(CCN1CCOCC1)c1ccc2ccccc2c1 (single isomer, unassigned) [Compound 140] | 59.76 | 5.8 |  |  |
| COc1nc2ccc(C#N)cc2cc1C(c1ccccc1)C(O)(CCN(C)C)c1cccc(F)c1 (single isomer, unassigned) [Compound 179] | 1.48 | 7.0 |  |  |
| COc1nc2ccc(Br)cc2cc1C(c1ccccc1)C(O)(CCN1CCN(C)CC1)c1cc(Br)cc2ccccc12 (single isomer, unassigned) [Compound 151] | 13.76 | 5.0 |  |  |
| COc1nc2ccc(Br)cc2cc1C(c1ccccc1)C(O)(CCN1CCOCC1)c1ccccc1 (racemic) [Compound 123] | 54.75 | 4.2 |  |  |
| COc1nc2ccc(Br)cc2cc1C(c1ccccc1)C(O)(CCN(C)C)c1ccc(F)cc1 (single isomer, unassigned) [Compound 182] | 8.30 | 6.3 |  |  |
| COc1ccc2nc(OC)c(C(c3ccccc3)C(O)(CCN(C)C)c3cccc(F)c3)cc2c1 (single isomer, unassigned) [Compound 135] | 1.50 | 7.4 |  |  |
| CCN(C)CCC(O)(c1cccc2ccccc12)C(c1ccccc1)c1cc2cc(Br)ccc2nc1OC (centres unmarked) [Compound 147] | 11.36 | 7.4 |  |  |
| COc1nc2ccc(Br)cc2cc1C(c1ccccc1)C(O)(CCCN(C)C)c1ccc2ccccc2c1 (single isomer, unassigned) [Compound 125] | 18.01 | 4.4 |  |  |
| COc1nc2ccc(Br)cc2cc1C(c1ccccc1)C(O)(CCN)c1ccccc1 (centres unmarked) [Compound 44] | 6.01 | 5.9 |  |  |
| COc1nc2ccc(F)cc2cc1C(c1ccccc1)C(O)(CCN(C)C)c1cc(F)cc(F)c1 (racemic) [Compound 208] | 0.38 | 7.9 |  |  |
| COc1nc2ccc(Br)cc2cc1C(c1ccccc1)C(O)(CCN(C)C)c1ccccc1 (centres unmarked) [Compound 1] |  | 7.3 |  |  |
| COc1nc2ccc(Br)cc2cc1C(c1ccccc1)C(O)(CCN1CCN(C)CC1)c1ccccc1 (racemic) [Compound 51] |  | 5.8 |  |  |
| COc1nc2ccc(Br)cc2cc1C(c1ccccc1)C(O)(CCN(C)C)c1cccc2c1CCCC2 (single isomer, unassigned) [Compound 131] | 44.45 | 6.9 |  |  |
| COc1nc2ccc(Br)cc2cc1C(c1ccccc1)C(O)(CCCN(C)C)c1ccccc1 (single isomer, unassigned) [Compound 63] | 1.64 | 6.7 |  |  |
| COc1nc2ccc(Br)cc2cc1C(c1ccccc1)C(O)(CCN(C)C)c1cccc(F)c1 (centres unmarked) [Compound 109] | 0.33 | 8.2 |  |  |
| COc1nc2ccc(Br)cc2cc1C(c1ccc(Cl)cc1)C(O)(CCN(C)C)c1ccccc1 (single isomer, unassigned) [Compound 37] | 0.34 | 7.9 |  |  |

| SMILES | MIC [1] [microgram/ml] | pIC50 (M. Smegmatis ATCC607) | MIC ([1]; Mycobacterium tuberculosis, H37RV, 168 h, read-out: MIC) [mg/L] | IC50 (M. Smegmatis ATCC607; Mycolicibacterium smegmatis, ATCC607, 48 h, read-out: pIC50 (converted)) [µM] |
| --- | --- | --- | --- | --- |
| COc1nc2ccc(Br)cc2cc1C(c1ccccc1)C(O)(CCCN(C)C)c1ccc2ccccc2c1 (single isomer, unassigned) [Compound 126] | 56.96 | 5.2 |  |  |
| COc1ccc2cc(C(O)(CCN(C)C)C(c3ccccc3)c3cc4cc(Br)ccc4nc3OC)ccc2c1 (single isomer, unassigned) [Compound 163] | 46.51 | 5.9 |  |  |
| COc1nc2ccc(Br)cc2cc1C(c1ccccc1)C(O)(CC[N+](C)(C)[O-])c1ccccc1 (racemic) [Compound 58] | 16.49 | 6.8 |  |  |
| CNCCC(O)(c1cccc2ccccc12)C(c1ccccc1)c1cc2cc(Br)ccc2nc1OC (centres unmarked) [Compound 56] |  |  | 43 (≈ 79.4 µM) | 0.0631 |
| COc1nc2ccc(Cl)cc2cc1C(c1ccccc1)C(O)(CCN(C)C)c1cccc2ccccc12 (single isomer, unassigned) [Compound 120] | 40.60 | 5.9 |  |  |
| COc1nc2ccc(Br)cc2cc1C(c1ccccc1)C(O)(CCN(C)C)c1ccccc1 (centres unmarked) [Compound 4] |  | 5.7 |  |  |
| COc1nc2ccc(Br)cc2cc1C(c1ccccc1)C(O)(CCN1CCN(c2ncccn2)CC1)c1ccc2ccccc2c1 (single isomer, unassigned) [Compound 209] | 67.47 |  |  |  |
| COc1nc2ccc(Br)cc2cc1C(c1ccccc1)C(O)(CCN(C)C)c1ccccc1 (centres unmarked) [Compound 3] |  | 6.7 |  |  |
| COc1nc2ccc(Br)cc2cc1C(c1ccccc1)C(O)(CCN(C)C)c1cccc(F)c1 (centres unmarked) [Compound 108] |  | 7.0 |  |  |
| COc1nc2ccc(Br)cc2cc1C(c1ccccc1)C(O)(CCN1CCCCC1)c1ccc2ccccc2c1 (centres unmarked) [Compound 128] | 59.56 |  |  |  |
| CN(C)CCC(O)(c1ccccc1)C(c1ccccc1)c1cc2cc(Br)ccc2n2ccnc12 (single isomer, unassigned) [Compound 104] |  | 6.6 |  |  |
| COc1nc2ccc(Br)cc2cc1C(c1ccccc1)C(O)(CCCN1CCOCC1)c1ccc2ccccc2c1 (single isomer, unassigned) [Compound 161] | 61.16 |  |  |  |
| COc1nc2ccc(Br)cc2cc1C(c1ccccc1)C(O)(CCN1CCOCC1)c1ccc2cc(Br)ccc2c1 (single isomer, unassigned) [Compound 177] | 67.65 |  |  |  |
| CN(C)CCC(O)(c1ccccc1)C(c1ccccc1)c1cc2cc(Br)ccc2nc1O (single isomer, unassigned) [Compound 60] |  | 5.6 |  |  |
| CN(C)CCC(O)(c1ccccc1)C(c1ccccc1)c1cc2cc(Br)ccc2nc1O (single isomer, unassigned) [Compound 59] |  | 5.1 |  |  |
| COc1nc2ccc(Br)cc2cc1C(c1ccccc1)C(O)(CCN(C)C)c1cc(F)ccc1F (centres unmarked) [Compound 68] |  | 6.4 |  |  |
| COc1nc2ccc(Br)cc2cc1C(c1ccccc1)C(O)(CCn1ccnc1)c1cccc2ccccc12 (single isomer, unassigned) [Compound 187] | 57.85 |  |  |  |
| COc1nc2ccc(Br)cc2cc1C(c1ccccc1)C(O)(CCN(C)C)c1ccccc1 (centres unmarked) [Compound 2] |  | 6.8 |  |  |
| CN(C)CCC(O)(c1ccccc1)C(c1ccccc1)c1cc2cc(Br)ccc2n2ccnc12 (single isomer, unassigned) [Compound 105] |  | 6.0 |  |  |
